Measurements from US12492370B2, “Method for producing protein using a Talaromyces cellulolyticus strain having reduced activity of PEP4” (AJINOMOTO CO., INC., priority 2020, dated 2025).
Non-standard residues stand in square brackets, D forms with d. Residues, ends and D or L forms follow the SMILES beside them. *: point of attachment. Sta = CC(C)C[C@H](N)[C@@H](O)CC(=O)O; Isovaleryl = CC(C)CC(=O)*

Experiments:
[1] = test system: protease activity of the culture supernatant of the control strain; assay: Protease activity of control strain culture supernatant with pepstatin A added; type: biochemical, Talaromyces cellulolyticus
Description: (§1) The protein concentration of the culture supernatant of each strain was measured using Protein Assay CBB (Nacalai Tesque). To confirm protease activity against casein, protease activity was measured using Amplite™ Universal Fluorimetric Protease Activity Assay Kit *Green (AAT Bioquest, Inc.). At the same time, protease activity was also measured under conditions in which an aspartate protease inhibitor pepstatin A was added.
(§2) A 50-μL aliquot of a 2× assay buffer included in the kit containing 0.5 μL of a protease substrate included in the kit (green fluorescent casein substrate) was dispensed into a 96-well plate (Greiner, product number: 655090), and 50 μL of the culture supernatants of the control strain and the Δpep4 strain were added to respective wells. Under conditions with pepstatin A addition, pepstatin A (Sigma-Aldrich, product number: P2032) was added at a final concentration of 10 μM. Protease activity was measured by measuring Relative Fluorescence Units (RFU, excitation/emission=490/525 nm) every 2 minutes at 37° C. using a microplate reader system SpectraMax® M2 (Molecular Devices). The obtained RFU was divided by the total amount of protein used in the measurement and the reaction time, to thereby calculate the protease specific activity per total amount of protein in the culture supernatant. In the table, the term “relative activity” represents the ratio of the protease specific activity of each sample to the protease specific activity of the control strain in the absence of pepstatin A. In the absence of pepstatin A, the protease specific activity of the culture supernatant of the Δpep4 strain was reduced to approximately 36% of that of the control strain.

[2] = test system: protease activity of the culture supernatant of the Δpep4 strain; assay: Protease activity of Δpep4 strain culture supernatant with pepstatin A added; type: biochemical, Talaromyces cellulolyticus
Description: as §1, §2

[3] = Pepstatin A 10 μM, ratio to control strain in the absence of pepstatin A

Compound: CC(C)CC(=O)N[C@H](C(=O)N[C@H](C(=O)N[C@@H](CC(C)C)[C@@H](O)CC(=O)N[C@@H](C)C(=O)N[C@@H](CC(C)C)[C@@H](O)CC(=O)O)C(C)C)C(C)C [Pepstatin A, pepstatin A] (Isovaleryl-VV[Sta]A[Sta]-OH)
- Protease specific activity ([1]; Pepstatin A 10 μM, 37° C.): 0.006 RFU/ug/min
- Relative activity [1, 3]: 12%
- protease specific activity inhibited by pepstatin A ([1]; pepstatin A 10 μM): about 88%
- Protease specific activity ([2]; Pepstatin A 10 μM, 37° C.): 0.016 RFU/ug/min
- Relative activity [2, 3]: 34%
- difference in protease specific activity between presence or absence of pepstatin A ([2]; pepstatin A 10 μM): almost no difference
